From PMC11938010, “Positive Charge in an Antimalarial Compound Unlocks Broad-Spectrum Antibacterial Activity” (JACS Au, 2025)
In brackets after ≈: the same amount, converted by molar mass. Like-named read-outs stand apart in the source and are kept apart here.

Key:
[1] = in vitro; details: human
[2] = test system: Plasmodium falciparum NF54; assay: P. falciparum in vitro drug sensitivity assay on asexual blood stage parasites ([3H]-hypoxanthine incorporation); assay type: cell-based; details: for IC50: read-out: PfNF54 IC50
[3] = test system: Escherichia coli ∆tolC; assay: microbe, parasite or virus in culture; assay type: cell-based; details: Escherichia coli; for MIC: read-out: EcΔtolC MIC95; for inhibition at 50 µM: read-out: Ec∆tolC inh. at 50 µM (%)
[4] = test system: Staphylococcus aureus ssp. Aureus; assay: In vitro antibacterial activity (MIC), S. aureus; assay type: cell-based; details: Staphylococcus aureus, read-out: Sa MIC95
[5] = test system: Streptococcus pneumoniae (DSM20566); assay: In vitro antibacterial activity (MIC), S. pneumoniae; assay type: cell-based; details: Streptococcus pneumoniae, DSM20566, read-out: Sp MIC95
[6] = test system: Mycobacterium tuberculosis (Mtb) strain H37Rv; assay: microbe, parasite or virus in culture; assay type: cell-based; details: 168 h, 7 days, footnote b: not active at maximum solubility, read-out: MtbH37Rv MIC90
[7] = test system: E. coli K12; assay: In vitro antibacterial activity (growth inhibition, OD600), E. coli wild-type; assay type: cell-based; details: Escherichia coli, K12, 50 µM; Table S1, with standard deviation; read-out: EcK12 inh. at 50 µM (%)
[8] = Plasmodium falciparum, NF54, Table 1 and main text
[9] = Table S2, with standard deviation

Row | Structure (SMILES) | CC50 ([1]; HepG2 CC50, 48 h, MTT) [µM] | IC50 [2, 8] [µM] | PfNF54 IC50 ([2]; Table 1 and main text) | MIC [3] [µM] | inhibition at 50 µM [3] [%] | MIC ([4]; Table 1 and main text) [µM] | MIC [4, 9] [µM] | MIC ([5]; Table 1 and main text) [µM] | MIC [5, 9] [µM] | MIC90 [6] [µM] | IC50 ([2]; Table 1 and main text) [µM] | inhibition at 50 µM [7] [%] | CC50 ([1]; HepG2 CC50 (µM), Table S2, with standard deviation) [µM]
1 | O=C(c1cc(-c2cc(Cl)ccc2O)[nH]n1)N1CCOCC1 [Compound 1e] | > 50 | > 5 | inactive | > 50 | 23 ± 3 | > 50 | > 50 | > 50 | > 50 | > 16 | – | – | –
2 | CC(C)(C)OC(=O)N1CCN=C1NCc1ccc(NC(=O)c2cc(-c3cc(Cl)ccc3O)[nH]n2)cc1 [Compound 8D] | > 50 | – | – | > 50 | 18.5 ± 0.8 | > 50 | > 50 | > 50 | > 50 | > 64 | – | – | –
3 | Cc1ccc(NC(=O)c2cc(-c3cc(Cl)ccc3O)[nH]n2)cc1 [Compound 1d] | > 50 | > 2 | – | > 50 | < 10 | > 50 | > 50 | > 50 | > 50 | – | 2.4 | – | –
4 | CC(C)(C)OC(=O)N1CCN(c2ccc(NC(=O)c3cc(-c4cc(Cl)ccc4O)[nH]n3)cc2)CC1 [Compound 6B] | > 50 | 1.61 | – | > 50 | < 10 | > 50 | > 50 | > 50 | > 50 | – | – | – | –
5 | CC(C)(C)OC(=O)N1CCN(Cc2cccc(NC(=O)c3cc(-c4cc(Cl)ccc4O)[nH]n3)c2)CC1 [Compound 3B] | 25 | 1 | – | > 50 | – | > 50 | > 50 | > 50 | > 50 | – | – | < 10 | –
6 | N=C(N)N1CCN(C(=O)c2cc(-c3cc(Cl)ccc3O)[nH]n2)CC1 [Compound 14G] | > 50 | > 5 | inactive | > 50 | 18 ± 9 | > 50 | > 50 | > 50 | > 50 | > 64 | – | – | –
7 | CC(C)(C)OC(=O)N1CCN(Cc2ccc(NC(=O)c3cc(-c4cc(Cl)ccc4O)[nH]n3)cc2)CC1 [Compound 4B] | 7 | 0.2 | – | > 50 | – | > 50 | > 50 | > 50 | > 50 | – | – | 17 ± 13 | 7.4 ± 0.7
8 | O=C(c1cc(-c2cc(Cl)ccc2O)[nH]n1)N1CCNCC1 [Compound 14A, (5-(5-Chloro-2-hydroxyphenyl)-1H-pyrazol-3-yl)(piperazin-1-yl)methanone] | > 50 | 3.3 | inactive | > 50 | 18 ± 4 | > 50 | > 50 | > 50 | > 50 | > 16 | – | – | –
9 | CC(C)(C)OC(=O)N1CCN(c2cc(NC(=O)c3cc(-c4cc(Cl)ccc4O)[nH]n3)ccc2C(F)(F)F)CC1 [Compound 13B, tert-Butyl 4-(5-(5-(5-chloro-2-hydroxyphenyl)-1H-pyrazole-3-carboxamido)-2-(trifluoromethyl)phenyl)piperazine-1-carboxylate] | 2.8 | 0.342 | – | > 50 | < 10 | > 50 | – | > 50 | – | – | – | – | –
10 | CC(C)(C)OC(=O)NCc1cc(NC(=O)c2cc(-c3cc(Cl)ccc3O)[nH]n2)cc(C(F)(F)F)c1 [Compound 9B, tert-Butyl (3-(5-(5-chloro-2-hydroxyphenyl)-1H-pyrazole-3-carboxamido)-5-(trifluoromethyl)benzyl)carbamate] | 5 | 0.203 | – | > 50 | 48 ± 8 | > 50 | > 50 | 30 (≈ 15.3 µg/mL) | 30 ± 5 (≈ 15.3 µg/mL) | > 64 | – | – | –
11 | CC(C)(C)OC(=O)NCc1cccc(NC(=O)c2cc(-c3cc(Cl)ccc3O)[nH]n2)c1 [Compound 7B] | > 50 | 1.1 | – | > 50 | < 10 | > 50 | > 50 | > 50 | > 50 | – | – | < 10 | –
